Source: patent US20260049071A1, “PROTEIN TYROSINE KINASE INHIBITOR AND MEDICAL USE THEREOF” (BEYANG THERAPEUTICS CO., LTD., priority 2022, published 2026)

Experiments:
FLT1 (VEGFR1) = FLT1 (VEGFR1) (Homo sapiens (Human), UniProt P17948); test: Kinase inhibition, Mobility Shift Assay (VEGFR1); type: biochemical
Procedure: (§1) This assay directly monitored the ability of compounds to inhibit kinase phosphorylation by measuring non-phosphorylated and phosphorylated substrates in kinase reactions by using Mobility Shift Assays/IMAP™ analysis.
(§2) Add the kinase and DTT to 1× kinase buffer to form a 2.5× kinase solution; transfer 10 μL of 2.5× kinase solution to a 384-well reaction plate and add 1× kinase buffer to negative control wells. Incubate the plate for 10 min at room temperature; add FAM-labeled peptides, MgCl2, ATP and other reagents to 1× kinase buffer to form a 2.5× substrate solution; transfer 10 μL of the above 2.5× substrate solution to the 384-well reaction plate; incubate the plate at 28° C. for different times, and add 25 μL of stop solution to the 384-well reaction plate to stop the reaction. Read the conversion ratio data on CaliperEZ Reader II. Convert conversion rates into inhibition ratio data.
(§3) “Min” indicates the readout of the control well without the addition of kinase; and “Max” indicates the readout of the control well with the addition of DMSO. Fit IC50 values with XLFit excel add-in version 5.4.0.8.
(§4) X indicates the log value of compound concentration, and Y indicates the inhibition ratio (% inhibition).

melanin = test: Binding capacity of compounds to melanin; type: in vitro ADME; conditions: Sepia officinalis (cuttlefish), melanin suspension (1 mg/mL); 1 mg/mL melanin suspension in PBS pH 7.4, 2 μM compound, 2 h at 37° C.; read-out: Fu % (percentage of free drug, not bound to melanin)
Description: Pigmented eye tissues contain melanin in intracellular melanosomes. Drugs bind to melanin to varying degrees, ranging from non-binding to extensive binding. Therefore, melanin binding is an important feature that affects drug delivery and biodistribution in the eye. The binding capacity of a compound to the melanin must be considered in the development of ophthalmic drugs.
Melanin was derived from the melanin of cuttlefish (Sepia officinalis) and was commercially available from Sigma Aldrich (St Louis, MO).
First, prepare 1 mg/mL melanin suspension with PBS (pH 7.4). As a washing step for the matrix, centrifuge the suspended particles for 5 min at 3000 rpm. Resuspend the resulting particles in a fresh PBS buffer, heat to 37° C. over continuous shaking and incubate it for 1 h. Accurately pipette 2 μL of the test stock solution (0.1 mM) into 98 μL of melanin suspension (1 mg/mL) to achieve a final incubation concentration of 2 μM. Similarly, accurately pipette 2 μL of the stock solution (0.1 mM) to 98 μL of PBS buffer (containing 0.1% BSA) as a blank control sample. Incubate the samples in a shaker (80-90 rpm) for 2 h at 37° C. Then, centrifuge the samples at room temperature. Pipette 50 μL of the supernatant and add 50 μL of precipitant (containing an internal standard). After protein precipitation of all the above samples, centrifuge the samples to collect the supernatants, dilute the supernatants with water (if necessary) and inject them for analysis. At the same time, measure the positive controls, including the high-binding compounds Sunitinib and chloroquine and the low-binding compound celecoxib. Establish an LC-MS/MS method for determining compound concentrations, and calibrate the peak area ratio of analyte/internal standard (Analyte/AIS) in the measured sample by the dilution factor to take it as an alternative concentration for the sample for data processing. The binding rate (Fh) of a compound in melanin was calculated as: […]
Ctest was the concentration of the compound in the melanin-incubated sample or the peak area ratio of the test compound to the internal standard. Ccontrol was the concentration of the compound in the blank control sample or the peak area ratio of the test compound to the internal standard. Percentage of free drug (Fu %)=100−Fb The binding rates of the compounds of the present invention to melanin are shown in the table below: […]

KDR (VEGFR2) = KDR (VEGFR2) (Homo sapiens (Human), UniProt P35968); test: Kinase inhibition, Mobility Shift Assay (VEGFR2); type: biochemical
KDR (VEGFR2), sequence (P35968 790-1356): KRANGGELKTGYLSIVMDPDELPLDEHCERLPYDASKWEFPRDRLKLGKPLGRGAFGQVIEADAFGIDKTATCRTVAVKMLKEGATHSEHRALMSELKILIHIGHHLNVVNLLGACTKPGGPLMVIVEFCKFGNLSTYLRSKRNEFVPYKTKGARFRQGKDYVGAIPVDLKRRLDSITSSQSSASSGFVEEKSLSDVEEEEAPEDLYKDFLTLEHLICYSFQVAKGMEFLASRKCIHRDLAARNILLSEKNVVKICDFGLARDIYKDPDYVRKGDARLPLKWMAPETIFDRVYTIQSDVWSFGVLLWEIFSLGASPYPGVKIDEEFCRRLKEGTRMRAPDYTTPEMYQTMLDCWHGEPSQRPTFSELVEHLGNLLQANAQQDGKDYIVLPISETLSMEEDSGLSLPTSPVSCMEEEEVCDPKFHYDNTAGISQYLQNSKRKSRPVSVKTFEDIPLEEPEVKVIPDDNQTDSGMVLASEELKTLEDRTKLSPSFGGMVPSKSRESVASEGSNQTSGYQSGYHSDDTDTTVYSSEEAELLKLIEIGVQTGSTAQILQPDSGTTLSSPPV
Procedure: as §1, §2, §3, §4

FLT4 (VEGFR3) = FLT4 (VEGFR3) (Homo sapiens (Human), UniProt P35916); test: Kinase inhibition, Mobility Shift Assay (VEGFR3); type: biochemical
FLT4 (VEGFR3), sequence (P35916 25-1363): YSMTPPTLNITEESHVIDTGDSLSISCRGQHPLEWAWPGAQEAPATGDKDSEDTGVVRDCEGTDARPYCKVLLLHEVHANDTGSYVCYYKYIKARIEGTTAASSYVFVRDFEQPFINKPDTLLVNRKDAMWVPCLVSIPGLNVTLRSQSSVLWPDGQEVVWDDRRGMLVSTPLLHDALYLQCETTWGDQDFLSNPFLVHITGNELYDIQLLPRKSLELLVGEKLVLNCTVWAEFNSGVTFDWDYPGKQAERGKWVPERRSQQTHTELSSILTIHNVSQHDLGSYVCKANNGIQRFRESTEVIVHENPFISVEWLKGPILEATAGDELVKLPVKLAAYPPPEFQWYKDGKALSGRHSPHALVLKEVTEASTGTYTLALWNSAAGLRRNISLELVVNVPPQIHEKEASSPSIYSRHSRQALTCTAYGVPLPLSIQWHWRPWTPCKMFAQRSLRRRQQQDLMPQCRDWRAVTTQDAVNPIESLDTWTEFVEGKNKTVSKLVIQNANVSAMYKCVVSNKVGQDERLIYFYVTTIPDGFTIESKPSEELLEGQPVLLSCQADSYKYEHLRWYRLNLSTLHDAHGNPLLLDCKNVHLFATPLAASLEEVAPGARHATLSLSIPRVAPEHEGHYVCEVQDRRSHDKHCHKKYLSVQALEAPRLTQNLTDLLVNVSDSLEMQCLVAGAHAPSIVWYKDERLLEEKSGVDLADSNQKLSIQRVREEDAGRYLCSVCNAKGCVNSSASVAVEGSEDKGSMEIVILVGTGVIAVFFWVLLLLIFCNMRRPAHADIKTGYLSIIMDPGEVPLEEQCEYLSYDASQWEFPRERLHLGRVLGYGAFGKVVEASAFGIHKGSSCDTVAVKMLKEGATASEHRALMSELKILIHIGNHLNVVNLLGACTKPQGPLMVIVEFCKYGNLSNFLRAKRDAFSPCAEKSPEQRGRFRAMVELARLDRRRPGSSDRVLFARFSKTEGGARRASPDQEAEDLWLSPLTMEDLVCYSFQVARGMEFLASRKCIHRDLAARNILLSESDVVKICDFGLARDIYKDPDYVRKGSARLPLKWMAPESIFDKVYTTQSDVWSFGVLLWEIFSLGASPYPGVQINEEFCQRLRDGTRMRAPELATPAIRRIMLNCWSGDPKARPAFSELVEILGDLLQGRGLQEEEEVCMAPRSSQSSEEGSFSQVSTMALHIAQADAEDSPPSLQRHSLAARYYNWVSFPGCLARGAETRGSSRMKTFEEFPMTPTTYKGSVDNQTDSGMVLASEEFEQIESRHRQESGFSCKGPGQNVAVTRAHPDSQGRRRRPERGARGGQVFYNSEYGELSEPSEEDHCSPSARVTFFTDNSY
Procedure: as §1, §2, §3, §4

EGFR = EGFR (Homo sapiens (Human), UniProt P00533); test: Kinase inhibition, Mobility Shift Assay (EGFR); type: biochemical
EGFR, sequence (P00533 25-1210): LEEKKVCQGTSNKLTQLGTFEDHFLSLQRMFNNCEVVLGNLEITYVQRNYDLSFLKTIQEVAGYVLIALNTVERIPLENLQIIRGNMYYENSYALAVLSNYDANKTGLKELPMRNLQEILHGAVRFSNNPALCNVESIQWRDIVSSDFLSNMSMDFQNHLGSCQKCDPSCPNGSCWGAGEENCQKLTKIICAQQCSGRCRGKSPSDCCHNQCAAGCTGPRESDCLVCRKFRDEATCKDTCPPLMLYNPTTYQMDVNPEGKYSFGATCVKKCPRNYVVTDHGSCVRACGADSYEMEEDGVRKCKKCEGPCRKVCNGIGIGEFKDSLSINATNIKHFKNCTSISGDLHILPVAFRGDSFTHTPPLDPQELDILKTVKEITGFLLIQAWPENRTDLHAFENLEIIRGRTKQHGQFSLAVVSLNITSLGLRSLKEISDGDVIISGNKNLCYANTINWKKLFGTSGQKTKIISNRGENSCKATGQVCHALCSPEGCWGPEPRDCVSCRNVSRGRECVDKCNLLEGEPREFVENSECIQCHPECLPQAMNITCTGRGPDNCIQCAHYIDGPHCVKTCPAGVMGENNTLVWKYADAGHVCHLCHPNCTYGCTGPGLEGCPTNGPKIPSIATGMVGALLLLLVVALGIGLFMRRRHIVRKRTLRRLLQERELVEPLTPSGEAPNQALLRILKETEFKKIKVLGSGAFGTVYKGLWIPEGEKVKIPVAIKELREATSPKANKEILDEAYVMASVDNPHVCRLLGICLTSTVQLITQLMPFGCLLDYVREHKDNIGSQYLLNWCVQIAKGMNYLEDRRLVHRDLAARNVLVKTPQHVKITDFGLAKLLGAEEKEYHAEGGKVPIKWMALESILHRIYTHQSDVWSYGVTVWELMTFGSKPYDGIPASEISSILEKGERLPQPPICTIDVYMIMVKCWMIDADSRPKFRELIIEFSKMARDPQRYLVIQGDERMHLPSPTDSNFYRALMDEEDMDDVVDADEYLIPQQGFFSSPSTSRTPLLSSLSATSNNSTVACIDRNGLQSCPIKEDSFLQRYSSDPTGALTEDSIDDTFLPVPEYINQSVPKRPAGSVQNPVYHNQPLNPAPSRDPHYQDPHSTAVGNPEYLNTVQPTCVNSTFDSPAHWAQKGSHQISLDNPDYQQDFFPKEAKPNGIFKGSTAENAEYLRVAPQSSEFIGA
Procedure: as §1, §2, §3, §4

FLT1 (VEGFR1), sequence (P17948 27-1338): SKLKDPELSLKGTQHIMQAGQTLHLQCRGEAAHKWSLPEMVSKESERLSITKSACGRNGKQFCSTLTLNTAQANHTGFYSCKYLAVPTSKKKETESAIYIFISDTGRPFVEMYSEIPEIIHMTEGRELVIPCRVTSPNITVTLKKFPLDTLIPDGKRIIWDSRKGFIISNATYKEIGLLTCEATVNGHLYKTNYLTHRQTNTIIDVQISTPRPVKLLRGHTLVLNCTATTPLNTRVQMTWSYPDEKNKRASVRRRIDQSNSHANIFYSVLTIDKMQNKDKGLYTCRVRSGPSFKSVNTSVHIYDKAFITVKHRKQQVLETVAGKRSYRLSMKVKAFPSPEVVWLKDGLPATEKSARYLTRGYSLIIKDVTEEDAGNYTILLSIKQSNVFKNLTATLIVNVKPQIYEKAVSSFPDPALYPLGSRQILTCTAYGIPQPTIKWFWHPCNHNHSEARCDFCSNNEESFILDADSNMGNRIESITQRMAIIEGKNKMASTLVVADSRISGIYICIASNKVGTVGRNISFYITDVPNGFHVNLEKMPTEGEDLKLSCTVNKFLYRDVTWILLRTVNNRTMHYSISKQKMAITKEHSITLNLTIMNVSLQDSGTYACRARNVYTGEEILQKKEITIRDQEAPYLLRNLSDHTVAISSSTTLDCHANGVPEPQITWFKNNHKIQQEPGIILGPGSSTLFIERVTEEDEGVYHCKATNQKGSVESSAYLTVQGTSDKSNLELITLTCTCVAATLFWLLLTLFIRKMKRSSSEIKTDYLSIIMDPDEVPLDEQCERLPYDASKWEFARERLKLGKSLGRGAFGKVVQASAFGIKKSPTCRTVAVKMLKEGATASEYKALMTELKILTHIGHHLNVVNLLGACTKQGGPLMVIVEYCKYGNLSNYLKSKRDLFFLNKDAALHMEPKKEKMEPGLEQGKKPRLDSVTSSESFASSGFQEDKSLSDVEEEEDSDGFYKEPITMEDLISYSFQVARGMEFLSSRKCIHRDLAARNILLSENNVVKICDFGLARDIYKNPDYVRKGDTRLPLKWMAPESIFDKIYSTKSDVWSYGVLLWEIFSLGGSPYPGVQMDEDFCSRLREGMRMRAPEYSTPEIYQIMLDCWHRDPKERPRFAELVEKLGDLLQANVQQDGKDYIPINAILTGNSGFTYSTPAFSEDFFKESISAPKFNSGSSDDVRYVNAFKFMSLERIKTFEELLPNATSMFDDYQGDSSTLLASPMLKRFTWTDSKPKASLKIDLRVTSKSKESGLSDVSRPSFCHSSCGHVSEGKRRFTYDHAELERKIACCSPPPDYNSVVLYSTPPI

| IC50 (FLT1 (VEGFR1)) | fraction unbound at 2 h, 2 μM (melanin) | IC50 (KDR (VEGFR2)) | IC50 (FLT4 (VEGFR3)) | IC50 (EGFR) | Structure (SMILES) |
| --- | --- | --- | --- | --- | --- |
| ≤ 1 nM | 0.01 to 0.05 | ≤ 1 nM | – | – | CNC(=O)c1ccccc1Sc1ccc2c(/C=C/c3ccc(OCC4CCCN4C)cn3)n[nH]c2c1 (centres unmarked) [Compound I-2, N-methyl-2-({3-[(E)-2-{5-[(1-methylpyrrolidin-2-yl)methoxy]pyridin-2-yl}vinyl]-1H-indazol-6-yl}thio)benzamide] |
| ≤ 1 nM | > 0.05 | – | – | – | CNC(=O)c1ccccc1Sc1ccc2c(/C=C/c3ccc(OCC4CCNC4)cn3)n[nH]c2c1 (centres unmarked) [Compound I-7] |
| 1 to 10 nM | – | 1 to 10 nM | ≤ 1 nM | 6000 to 60000 nM | CNC(=O)c1ccccc1Sc1ccc2c(/C=C/c3ccc(O)cn3)n[nH]c2c1 [Compound I-10, 2-({3-[(E)-2-(5-hydroxypyridin-2-yl)vinyl]-1H-indazol-6-yl}thio)-N-methylbenzamide] |
| 10 to 100 nM | – | 10 to 100 nM | 10 to 100 nM | 6000 to 60000 nM | CNC(=O)c1ccccc1Sc1ccc2c(C#Cc3cccc(OCCN4CCCC4)n3)n[nH]c2c1 [Compound I-24, N-methyl-2-{[3-(2-{6-[2-(pyrrolidin-1-yl)ethoxy]pyridin-2-yl}ethynyl)-1H-indazol-6-yl]thio}benzamide] |
| > 100 nM | – | > 100 nM | > 100 nM | 6000 to 60000 nM | CNC(=O)c1ccccc1Sc1ccc2c(Nc3ccc(OCCN4CCCC4)cn3)n[nH]c2c1 [Compound I-30, N-methyl-2-{[3-({5-[2-(pyrrolidin-1-yl)ethoxy]pyridin-2-yl}amino)-1H-indazol-6-yl]thio}benzamide] |
| ≤ 1 nM | 0.01 to 0.05 | ≤ 1 nM | – | – | CNC(=O)c1ccccc1Sc1ccc2c(/C=C/c3ccc(OC[C@H]4CCN(C)C4)cn3)n[nH]c2c1 [Compound I-37, N-methyl-2-({3-[(E)-2-(5-{[(3S)-1-methylpyrrolidin-3-yl]methoxy}pyridin-2-yl)vinyl]-1H-indazol-6-yl}thio)benzamide] |
| – | 0.01 to 0.05 | – | – | – | O=C(NC1CC1)c1cccc(F)c1Sc1ccc2c(/C=C/c3cnn(CCCN4CCCC4)c3)n[nH]c2c1 [Compound I-44, N-cyclopropyl-3-fluoro-2-({3-[(E)-2-{1-[3-(pyrrolidin-1-yl)propyl]-1H-pyrazol-4-yl}vinyl]-1H-indazol-6-yl}thio)benzamide] |
| – | 0.01 to 0.05 | – | – | – | CN(C)CCOc1ccc(/C=C/c2n[nH]c3cc(Sc4ccccc4C(=O)NC4CC4)ccc23)nc1 [Compound I-51, N-cyclopropyl-2-({3-[(E)-2-{5-[2-(dimethylamino)ethoxy]pyridin-2-yl}vinyl]-1H-indazol-6-yl}thio)benzamide] |
| – | > 0.05 | – | – | – | CCN(C)CCOc1ccc(/C=C/c2n[nH]c3cc(Sc4ccccc4C(=O)NC4CC4)ccc23)nc1 [Compound I-52, N-cyclopropyl-2-({3-[(E)-2-{5-[2-(diethylamino)ethoxy]pyridin-2-yl}vinyl]-1H-indazol-6-yl}thio)benzoyl] |
| – | > 0.05 | – | – | – | O=C(NC1CC1)c1ccccc1Sc1ccc2c(/C=C/c3ccc(OCCN4CCCCC4)cn3)n[nH]c2c1 [Compound I-53, N-cyclopropyl-2-({3-[(E)-2-{5-[2-(piperidin-1-yl)ethoxy]pyridin-2-yl}vinyl]-1H-indazol-6-yl}thio)benzamide] |
| – | 0.01 to 0.05 | 1 to 10 nM | – | 6000 to 60000 nM | CCNC(=O)c1ccccc1Sc1ccc2c(/C=C/c3ccc(CN4CCCC4)cn3)n[nH]c2c1 [Compound I-73, N-ethyl-2-({3-[(E)-2-{5-[(pyrrolidin-1-yl)methyl]pyridin-2-yl}vinyl]-1H-indazol-6-yl}thio)benzamide] |
| – | > 0.05 | 1 to 10 nM | – | 600 to 6000 nM | CNC(=O)c1cccc(F)c1Sc1ccc2c(/C=C/c3cnn(CCCN4CCCC4)c3)n[nH]c2c1 [Compound I-76, 3-fluoro-N-methyl-2-({3-[(E)-2-{1-[3-(pyrrolidin-1-yl)propyl]-1H-pyrazol-4-yl}vinyl]-1H-indazol-6-yl}thio)benzamide] |
| – | > 0.05 | ≤ 1 nM | – | 6000 to 60000 nM | O=C(NC1CC1)c1ccc(F)cc1Sc1ccc2c(/C=C/c3ccc(CN4CCCC4)cn3)n[nH]c2c1 [Compound I-79, N-cyclopropyl-4-fluoro-2-({3-[(E)-2-{5-[(pyrrolidin-1-yl)methyl]pyridin-2-yl}vinyl]-1H-indazol-6-yl}thio)benzamide] |
| – | 0.01 to 0.05 | ≤ 1 nM | – | 6000 to 60000 nM | O=C(NC1CC1)c1ccccc1Nc1ccc2c(/C=C/c3ccc(CN4CCCC4)cn3)n[nH]c2c1 [Compound I-82, N-cyclopropyl-2-({3-[(E)-2-{5-[(pyrrolidin-1-yl)methyl]pyridin-2-yl}vinyl]-1H-indazol-6-yl}amino)benzamide] |
| – | 0.01 to 0.05 | 1 to 10 nM | – | 6000 to 60000 nM | CCN(CC)Cc1ccc(/C=C/c2n[nH]c3cc(Sc4c(F)cccc4C(=O)NC)ccc23)nc1 [Compound I-91, 2-({3-[(E)-2-{5-[(diethylamino)methyl]pyridin-2-yl}vinyl]-1H-indazol-6-yl}thio)-3-fluoro-N-methylbenzamide] |
| – | 0.01 to 0.05 | 1 to 10 nM | – | 6000 to 60000 nM | CCN(CC)Cc1ccc(/C=C/c2n[nH]c3cc(Sc4ccc(F)cc4C(=O)NC)ccc23)nc1 [Compound I-93, 2-({3-[(E)-2-{5-[(diethylamino)methyl]pyridin-2-yl}vinyl]-1H-indazol-6-yl}thio)-5-fluoro-N-methylbenzamide] |
| – | 0.01 to 0.05 | 1 to 10 nM | – | 6000 to 60000 nM | CNC(=O)c1ccc(F)cc1Sc1ccc2c(/C=C/c3ccc(CN4CCCC4)cn3)n[nH]c2c1 [Compound I-94, 4-fluoro-N-methyl-2-({3-[(E)-2-{5-[(pyrrolidin-1-yl)methyl]pyridin-2-yl}vinyl]-1H-indazol-6-yl}thio)benzamide] |
| – | > 0.05 | 1 to 10 nM | – | 6000 to 60000 nM | CCN(CC)Cc1ccc(/C=C/c2n[nH]c3cc(Sc4ccccc4C(=O)NCCF)ccc23)nc1 [Compound I-98, 2-({3-[(E)-2-{5-(diethylamino)methyl]pyridin-2-ylvinyl]-1H-indazol-6-yl}thio)-N-(2-fluoroethyl)benzamide] |
| – | > 0.05 | 1 to 10 nM | – | 6000 to 60000 nM | CCN(CC)Cc1ccc(/C=C/c2n[nH]c3cc(Sc4ccccc4C(=O)NCC(F)F)ccc23)nc1 [Compound I-99, 2-({3-[(E)-2-{5-[(diethylamino)methyl]pyridin-2-yl}vinyl]-1H-indazol-6-yl}thio)-N-(2,2-difluoroethyl)benzamide] |
| 1 to 10 nM | – | ≤ 1 nM | 10 to 100 nM | > 60000 nM | O=C(NC1CC1)c1cc(F)ccc1Sc1ccc2c(/C=C/c3cc(CCCN4CCCC4)ccn3)n[nH]c2c1 [Compound I-119, N-cyclopropyl-5-fluoro-2-({3-[(E)-2-{4-[3-(pyrrolidin-1-yl)propyl]pyridin-2-yl}vinyl]-1H-indazol-6-yl}thio)benzamide] |

| Structure (SMILES) | IC50 (FLT1 (VEGFR1)) | fraction unbound at 2 h, 2 μM (melanin) | IC50 (KDR (VEGFR2)) | IC50 (FLT4 (VEGFR3)) | IC50 (EGFR) |
| --- | --- | --- | --- | --- | --- |
| CNC(=O)c1ccccc1Sc1ccn2c(/C=C/c3ccccn3)ncc2c1 [Compound I-27, N-methyl-2-({3-[(E)-2-(pyridin-2-yl)vinyl]imidazo[1,5-a]pyridin-7-yl}thio)benzamide] | > 100 nM | – | > 100 nM | > 100 nM | 6000 to 60000 nM |
